In ChEMBL document CHEMBL3272074, “A new class of diuretics with the 1,4-dioxino(2,3-g)quinolone structure” (J Med Chem, 1976):
Activity calls are given as the source filed them. The calls are words filed in the database; no cut-off is given here.

What was measured:
[1] = test system: Rattus norvegicus; assay: Diuretic activity in po dosed albino Wistar-TNO rat assessed as 100% increase in urinary volume measured for 5 hrs; assay type: functional, Urine
[2] = organism: Rattus norvegicus; assay: Ratio of furosemide ED200 to compound ED200 for diuretic activity in albino Wistar-TNO rat; assay type: functional, Urine
[3] = test system: Rattus norvegicus; assay: Diuretic activity in po dosed albino Wistar-TNO rat assessed as rapid onset of action; assay type: functional, organism-based; settings: Urine
[4] = test system: Rattus norvegicus; assay: Diuretic activity in po dosed albino Wistar-TNO rat assessed as time duration of action; assay type: functional, Urine
[5] = test system: Rattus norvegicus; assay: Natriuretic activity in po dosed albino Wistar-TNO rat assessed as Na/K ratio; assay type: functional, organism-based
[6] = organism: Rattus norvegicus; assay: Diuretic activity in experimentally-induced alkalosis rat model; assay type: functional, organism-based; settings: Urine
[7] = organism: Rattus norvegicus; assay: Diuretic activity in experimentally-induced acidosis rat model; assay type: functional, organism-based; settings: Urine
[8] = test system: Rattus norvegicus; assay: Diuretic activity in experimentally-induced oedema rat model; assay type: functional, organism-based; settings: Urine
[9] = test system: Rattus norvegicus; assay: Diuretic activity in po dosed albino Wistar-TNO rat measured after chronic administration; assay type: functional, organism-based; settings: Urine
[10] = test system: Rattus norvegicus; assay: Toxicity in po dosed albino Wistar-TNO rat at 50 times effective dose for diuresis measured after chronic administration; assay type: organism-based; settings: in vivo
[11] = organism: Mus musculus; assay: Diuretic activity in mouse; assay type: functional, organism-based; settings: Urine
[12] = test system: Hamster; assay: Diuretic activity in hamster; assay type: functional, organism-based; settings: Cricetinae; Urine
[13] = test system: Rhesus monkey; assay: Diuretic activity in rhesus monkey; assay type: functional, organism-based; settings: Macaca mulatta; Urine
[14] = organism: Canis familiaris; assay: Natriuretic activity in non-loaded Beagle dog; assay type: functional, organism-based; settings: Canis lupus familiaris
[15] = test system: Rattus norvegicus; assay: Diuretic activity in po dosed albino Wistar-TNO rat assessed as increase in urinary volume measured for 5 hrs; assay type: functional, organism-based; settings: Urine
[16] = test system: Rattus norvegicus; assay: Toxicity in po dosed albino Wistar-TNO rat assessed as uric acid excretion; assay type: organism-based; settings: in vivo
[17] = test system: Rattus norvegicus; assay: Diuretic activity in albino Wistar-TNO rat assessed as increase in urinary volume at 50 mg/kg, po measured for 5 hrs; assay type: functional, organism-based; set-up: dose 50 mg/kg; settings: Urine

`CCOCC1COc2c(cc3[nH]cc(C(=O)OCC)c(=O)c3c2Cl)O1` (stereo not given) [QUINCARBATE] was tested. Which ED200 [1] did it give?
The ED200 was 0.08 mg/kg.

What about the Ratio [2] of the same compound?
Its Ratio is 200.

What about the Activity [3] of the same compound?
The Activity was “Active”.

What about the Time [4] of the same compound?
Its Time is 8 h.

What about the Activity [5] of the same compound?
Its Activity is “Active”.

What about the Activity [6] of the same compound?
Its Activity is “Active”.

What about the Activity [7] of the same compound?
The Activity was “Active”.

What about the Activity [8] of the same compound?
Its Activity is “Active”.

And the Activity [9]?
The Activity was “Active”.

What about the Activity [10] of the same compound?
Its Activity is “Non-toxic”.

What about the Activity [11] of the same compound?
The Activity was “inactive”.

And the Activity [12]?
The Activity was “inactive”.

What about the Activity [13] of the same compound?
The Activity was “Active”.

And the Activity [14]?
The Activity was “Active”.

And the Activity [15]?
Its Activity is “Dose-dependent effect”.

And the Activity [16]?
The Activity was “Toxic”.

How did the ED200 [1] turn out when `CCOCC1COc2c(cc3[nH]cc(C(=O)OCC)c(=O)c3c2C(F)(F)F)O1` (stereo not given) was run?
Its ED200 is 0.5 mg/kg.

Which ED200 [1] does the source give for `CCOCC1COc2cc3c(=O)c(C(=O)OCC)c[nH]c3cc2O1` (stereo not given) here?
The ED200 was 3.8 mg/kg.

Which Activity [17] does the source give for `CCOCC1COc2cc3c(=O)c(C(=O)OCC)c[nH]c3c(Cl)c2O1` (stereo not given) here?
Its Activity is “inactive”.

How did the ED200 [1] turn out when `CCOCC1COc2c(cc3[nH]cc(C(=O)OCC)c(=O)c3c2Br)O1` (stereo not given) was run?
The ED200 was 0.4 mg/kg.

With `CCOCC1COc2cc3c(=S)c(C(=O)OCC)c[nH]c3cc2O1` (stereo not given) as the compound, how does the ED200 [1] read?
The ED200 was 13 mg/kg.

How did the ED200 [1] turn out when `NS(=O)(=O)c1cc2c(cc1Cl)N=CNS2(=O)=O` [CHLOROTHIAZIDE] was run?
The ED200 was 30 mg/kg.

And the Activity [15]?
Its Activity is “Dose-dependent effect”.

`CCOCC1COc2c(cc3[nH]cc(C(=O)OCC)c(=O)c3c2[N+](=O)[O-])O1` (stereo not given) was tested. Which ED200 [1] did it give?
Its ED200 is 3 mg/kg.

Which results are given for `CCOCC1COc2c(cc3[nH]cc(C(=O)O)c(=O)c3c2Cl)O1` (stereo not given)?
ED200 [1]: 0.14 mg/kg; Ratio [2]: 200; Activity [3]: Active; Time [4]: 8 h; Activity [5]: Active; Activity [6]: Active; Activity [7]: Active; Activity [8]: Active; Activity [9]: Active; Activity [10]: Non-toxic; Activity [11]: inactive; Activity [12]: inactive; Activity [13]: Active; Activity [14]: Active; Activity [15]: Dose-dependent effect; Activity [16]: Toxic

How did the ED200 [1] turn out when `CCOCC1COc2c(cc3[nH]cc(C(=O)OCC)c(=N)c3c2Cl)O1` (stereo not given) was run?
Its ED200 is 2 mg/kg.

`NS(=O)(=O)c1cc(C(=O)O)c(NCc2ccco2)cc1Cl` [FUROSEMIDE] was tested. Which ED200 [1] did it give?
Its ED200 is 28 mg/kg.

What about the Activity [15] of the same compound?
Its Activity is “Dose-dependent effect”.

How did the ED200 [1] turn out when `CCOCC1COc2cc3[nH]cc(C(=O)OCC)c(=O)c3c(Cl)c2O1` (stereo not given) was run?
The ED200 was 2.5 mg/kg.

`CCOCC1COc2c(c(Cl)c3[nH]cc(C(=O)OCC)c(=O)c3c2Cl)O1` (stereo not given) was tested. Which Activity [17] did it give?
Its Activity is “inactive”.
